# In publication PMC2994747, “Molecular Characterization of c-Abl/c-Src Kinase Inhibitors Targeted against Murine Tumour Progenitor Cells that Express Stem Cell Markers” (PLoS ONE, 2010):
# Legend:
# Assay in all cases: Whole genome expression analysis (Affymetrix microarray)
# Format in all cases: cell-based, human
# [1] = test system: A549
# Protocol: (§1) The cells were harvested and RNA was isolated using RNeasy Mini Kit (Qiagen, Hilden, Germany) according to the instructions of the manufacturer. The isolated RNA (250 ng) was processed further using standard protocols as described recently with the exception of the 3′ IVT Express Kit (Affymetrix, High Wycombe, UK) that was utilized according to instructions. Quality control of cRNA was done with the Agilent 2100 Bioanalyzer (Agilent Tech according to manufacturer's protocols. Following fragmentation, cRNA of each sample was hybridized to Affymetrix GeneChip® Mouse Genome 430 2.0 or Human Genome U133 Plus 2.0 and scanned with an Affymetrix 3000 7G scanner.
# (§2) The resultant data was normalized by Probe Logarithmic Intensity Error Estimation (PLIER) algorithm. Statistical analysis was carried out with the ArrayTrack software (National Center for Toxicological Research/FDA, Jefferson, AR, USA) using SAM algorithm.
# [2] = test system: CaCo2
# Protocol: as §1, §2
# [3] = test system: HepG2
# Protocol: as §1, §2
# [4] = IC50 concentration, 96 h, SAM FDR<0.01, FC>2
structure (smiles),measurement,setting,value
Fc1ccccc1CNc1ncnc2c1cnn2CC(Cl)c1ccc(Br)cc1 (stereo not shown) [Si162],"Cdkn1a (cyclin-dependent kinase inhibitor 1A (p21Cip1)) regulated gene, Si162 vs Ktr FC",[1],2.54
same,"Cdkn3 (cyclin-dependent kinase inhibitor 3) regulated gene, Si162 vs Ktr FC",[1],-5.90
same,"Ceacam6 (carcinoembryonic antigen-related cell adhesion molecule 6) regulated gene, Si162 vs Ktr FC",[1],3.24
same,"Cenpa (centromere protein A) regulated gene, Si162 vs Ktr FC",[1],-6.17
same,"Ctsb (cathepsin B) regulated gene, Si162 vs Ktr FC",[1],1.38
same,"Dgka (diacylglycerol kinase, alpha 80kDa) regulated gene, Si162 vs Ktr FC",[1],1.92
same,"E2F1 (E2F transcription factor 1) regulated gene, Si162 vs Ktr FC",[1],-6.54
same,"Fas (Fas (TNF receptor superfamily, member 6)) regulated gene, Si162 vs Ktr FC",[1],2.18
same,"Fn1 (fibronectin 1) regulated gene, Si162 vs Ktr FC",[1],1.40
same,"Gadd45a (growth arrest and DNA-damage-inducible, alpha) regulated gene, Si162 vs Ktr FC",[1],1.46
same,"Gsk3b (glycogen synthase kinase 3 beta) regulated gene, Si162 vs Ktr FC",[1],1.51
same,"Inpp5d (inositol polyphosphate-5-phosphatase, 145kDa) regulated gene, Si162 vs Ktr FC",[1],2.27
same,"Itgb4 (integrin, beta 4) regulated gene, Si162 vs Ktr FC",[1],1.48
same,"Jun (jun oncogene) regulated gene, Si162 vs Ktr FC",[1],1.36
same,"Mdm2 (Mdm2 p53 binding protein homolog (mouse)) regulated gene, Si162 vs Ktr FC",[1],1.96
same,"Plk1 (polo-like kinase 1 (Drosophila)) regulated gene, Si162 vs Ktr FC",[1],-2.12
same,"Ptgs2 (prostaglandin-endoperoxide synthase 2) regulated gene, Si162 vs Ktr FC",[1],1.27
same,"Tgfb1i1 (transforming growth factor beta 1 induced transcript 1) regulated gene, Si162 vs Ktr FC",[1],1.15
same,"Tuba1a (tubulin, alpha 1a) regulated gene, Si162 vs Ktr FC",[1],1.06
same,"Vtn (vitronectin) regulated gene, Si162 vs Ktr FC",[1],4.54
same,"Significantly differentially regulated genes, downregulated (number)",[1]; [4],472
same,"Significantly differentially regulated genes, upregulated (number)",[1]; [4],785
same,"Cav1 (caveolin 1, caveolae protein, 22kDa) regulated gene, Si162 vs Ktr FC",[2],2.45
same,"Ceacam6 (carcinoembryonic antigen-related cell adhesion molecule 6) regulated gene, Si162 vs Ktr FC",[2],1.49
same,"Mmp1 (matrix metallopeptidase 1 (interstitial collagenase)) regulated gene, Si162 vs Ktr FC",[2],1.71
same,"Pmaip1 (phorbol-12-myristate-13-acetate-induced protein 1 (Noxa)) regulated gene, Si162 vs Ktr FC",[2],1.12
same,"Tuba1a (tubulin, alpha 1a) regulated gene, Si162 vs Ktr FC",[2],1.01
same,"Vim (vimentin) regulated gene, Si162 vs Ktr FC",[2],1.80
same,"Significantly differentially regulated genes, downregulated (number)",[2]; [4],6
same,"Significantly differentially regulated genes, upregulated (number)",[2]; [4],75
same,"Akt2 (v-akt murine thymoma viral oncogene homolog 2) regulated gene, Si162 vs Ktr FC",[3],-4.47
same,"Bcl2l1 (BCL2-like 1) regulated gene, Si162 vs Ktr FC",[3],1.08
same,"Birc5 (baculoviral IAP repeat-containing 5) regulated gene, Si162 vs Ktr FC",[3],-4.98
same,"Capn2 (calpain 2, (m/II) large subunit) regulated gene, Si162 vs Ktr FC",[3],2.34
same,"Casp3 (caspase 3, apoptosis-related cysteine peptidase) regulated gene, Si162 vs Ktr FC",[3],1.08
same,"Casp6 (caspase 6, apoptosis-related cysteine peptidase) regulated gene, Si162 vs Ktr FC",[3],1.01
same,"Cdc2 (cell division cycle 2 (Cdk1)) regulated gene, Si162 vs Ktr FC",[3],-5.34
same,"Cdh1 (cadherin 1, type 1, E-cadherin (epithelial)) regulated gene, Si162 vs Ktr FC",[3],1.32
same,"Cdkn1a (cyclin-dependent kinase inhibitor 1A (p21Cip1)) regulated gene, Si162 vs Ktr FC",[3],1.62
same,"Cdkn2a (cyclin-dependent kinase inhibitor 2A (p16)) regulated gene, Si162 vs Ktr FC",[3],2.03
same,"Cdkn2b (cyclin-dependent kinase inhibitor 2B (p15)) regulated gene, Si162 vs Ktr FC",[3],3.43
same,"Cenpa (centromere protein A) regulated gene, Si162 vs Ktr FC",[3],-4.35
same,"Egfr (epidermal growth factor receptor) regulated gene, Si162 vs Ktr FC",[3],1.36
same,"Fas (Fas (TNF receptor superfamily, member 6)) regulated gene, Si162 vs Ktr FC",[3],2.46
same,"Grb10 (growth factor receptor-bound protein 10) regulated gene, Si162 vs Ktr FC",[3],1.12
same,"Jun (jun oncogene) regulated gene, Si162 vs Ktr FC",[3],1.14
same,"Mdm2 (Mdm2 p53 binding protein homolog (mouse)) regulated gene, Si162 vs Ktr FC",[3],1.15
same,"Mmp3 (matrix metallopeptidase 3 (stromelysin 1, progelatinase)) regulated gene, Si162 vs Ktr FC",[3],4.17
same,"Pdgfrb (platelet-derived growth factor receptor, beta polypeptide) regulated gene, Si162 vs Ktr FC",[3],-4.81
same,"Pmaip1 (phorbol-12-myristate-13-acetate-induced protein 1 (Noxa)) regulated gene, Si162 vs Ktr FC",[3],1.37
same,"Tgfb1i1 (transforming growth factor beta 1 induced transcript 1) regulated gene, Si162 vs Ktr FC",[3],1.86
same,"Tuba1a (tubulin, alpha 1a) regulated gene, Si162 vs Ktr FC",[3],4.28
same,"Differentially expressed genes, total (number)","[3]; IC50 concentration, 96 h",more than 1400
same,"Significantly differentially regulated genes, downregulated (number)",[3]; [4],707
same,"Significantly differentially regulated genes, upregulated (number)",[3]; [4],717
